According to ChEMBL document CHEMBL1201862, “PubChem BioAssay data set” (2004):
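Results reflect a 48-hour exposure of cells in 96-well plates to compound at five concentrations. GI50 is the concentration that inhibits growth by half.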 Calls of active or inactive are those of the source. No stated cut-off is given here; in the data, active = GI50 up to about 1.1 µM and inactive = higher. *1 amine or outer side, *2 acyl side, *3 side chain or, on linkers, in order; H or OH if unused. Where a SMILES comes first, the peptide text is derived from it. [ ]: non-standard residue; d: D form. The star is where a group is joined. ξ: configuration not given here. X43 = CCC(=O)CC(O)CC(C)CC(N[*:1])C(=O)[*:2]; ξLeu(3ξ-OH) = CC(C)C(O)C(N)C(=O)O; ξPro(4ξ-Me) = CC1CNC(C(=O)O)C1; X42 = CCC(C)/C=C/C(=O)*; Aib = CC(C)(N)C(=O)O; X44 = CC(CN(C)C)N*; βAla = NCCC(=O)O

What was measured:
Experiment in all cases: inhibition of tumour cell growth, NCI panel, 48 h
[1] = tested on: EKVX
[2] = tested on: 786-0
[3] = tested on: SN12C
[4] = tested on: HCC 2998
[5] = tested on: HOP-62
[6] = tested on: CAKI-1
[7] = tested on: K562
[8] = tested on: OVCAR-4
[9] = tested on: LOX IMVI
[10] = tested on: Malme-3M
[11] = tested on: RXF 393
[12] = tested on: IGROV-1
[13] = tested on: UO-31
[14] = tested on: OVCAR-3
[15] = tested on: Hs-578T
[16] = tested on: M14
[17] = tested on: SK-MEL-2
[18] = tested on: MCF7
[19] = tested on: NCI-H460
[20] = tested on: BT-549

SMILES	GI50 [1]	GI50 [2]	GI50 [3]	GI50 [4]	GI50 [5]	GI50 [6]	GI50 [7]	GI50 [8]	GI50 [9]	GI50 [10]	GI50 [11]	GI50 [12]	GI50 [13]	GI50 [14]	GI50 [15]	GI50 [16]	GI50 [17]	GI50 [18]	GI50 [19]	GI50 [20]
S=C1NCCN1C(=S)Nc1ccccc1	33.9 µM (inactive)	> 100 µM (inactive)	> 100 µM (inactive)	65.5 µM (inactive)	> 100 µM (inactive)	46.8 µM (inactive)	74.6 µM (inactive)	21.9 µM (inactive)	> 100 µM (inactive)	> 100 µM (inactive)	10.5 µM (inactive)	> 100 µM (inactive)	36.7 µM (inactive)	90.8 µM (inactive)	84.1 µM (inactive)	61.5 µM (inactive)	> 100 µM (inactive)	> 100 µM (inactive)	89.5 µM (inactive)	83 µM (inactive)
O=S(=O)(O)C(CO)c1ccccc1.O=S(=O)(O)Cc1ccccc1 (stereo not given)	> 100 µM (inactive)	> 100 µM (inactive)	> 100 µM (inactive)	> 100 µM (inactive)	> 100 µM (inactive)	> 100 µM (inactive)	> 100 µM (inactive)	> 100 µM (inactive)	> 100 µM (inactive)	> 100 µM (inactive)	> 100 µM (inactive)	> 100 µM (inactive)	> 100 µM (inactive)	> 100 µM (inactive)	96.4 µM (inactive)	> 100 µM (inactive)	> 100 µM (inactive)	> 100 µM (inactive)	> 100 µM (inactive)	> 100 µM (inactive)
S=C(Nc1ccc2cn[nH]c2c1)Nc1ccc2cn[nH]c2c1	54 µM (inactive)	98.2 µM (inactive)	> 100 µM (inactive)	60.8 µM (inactive)	> 100 µM (inactive)	> 100 µM (inactive)	61.7 µM (inactive)	> 100 µM (inactive)	70 µM (inactive)	> 100 µM (inactive)	> 100 µM (inactive)	46.8 µM (inactive)	> 100 µM (inactive)	> 100 µM (inactive)	> 100 µM (inactive)	> 100 µM (inactive)	35.6 µM (inactive)	82 µM (inactive)	43 µM (inactive)	27.6 µM (inactive)
CCC(=O)CC(O)CC(C)CC(NC(=O)C1CC(C)CN1C(=O)/C=C/C(C)CC)C(=O)NC(C(=O)NC(C)(C)C(=O)NC(CC(C)C)C(=O)NC(CC(C)C)C(=O)NC(C)(C)C(=O)NC(C)(C)C(=O)NCCC(=O)NC(C)CN(C)C)C(O)C(C)C (stereo not given) (X42-[ξPro(4ξ-Me)][X43][ξLeu(3ξ-OH)][Aib]LL[Aib][Aib][βAla]-X44; configuration not given here)	< 0.005 µM (active)	1.52 µM (inactive)	0.261 µM (active)	0.153 µM (active)	0.151 µM (active)	1.19 µM (inactive)	0.0469 µM (active)	0.0361 µM (active)	0.199 µM (active)	0.133 µM (active)	0.38 µM (active)	0.0746 µM (active)	5.87 µM (inactive)	0.0074 µM (active)	0.0132 µM (active)	0.615 µM (active)	0.12 µM (active)	< 0.005 µM (active)	0.0374 µM (active)	0.29 µM (active)
O=C1/C(=C/c2ccccc2)CCc2ccc([N+](=O)[O-])cc21	> 91.8 µM (inactive)	28.4 µM (inactive)	> 75.9 µM (inactive)	> 88.3 µM (inactive)	> 71.3 µM (inactive)	> 100 µM (inactive)	15.9 µM (inactive)	39.5 µM (inactive)	21.5 µM (inactive)	46.8 µM (inactive)	23.8 µM (inactive)	72.9 µM (inactive)	> 82.8 µM (inactive)	> 100 µM (inactive)	37.4 µM (inactive)	48.2 µM (inactive)	13.6 µM (inactive)	4.17 µM (inactive)	> 100 µM (inactive)	31.3 µM (inactive)
